The values that follow come from US20200278355A1, “CONJUGATED PROTEINS AND USES THEREOF” (THE SCRIPPS RESEARCH INSTITUTE, priority 2017, published 2020).

Assay [1] has as its system cysteine reactivity in H2122 and H1975 cells. Put plainly: isoTOP-ABPP of cysteine reactivity changes after staurosporine or AZD9291 treatment. Format: cell-based, human. Particulars: staurosporine 1 μM, 4 h (H2122, H1975); AZD9291 1 μM, 24 h (H1975). How it is done:
For analysis of cysteines that change following induction of apoptosis, H2122 and H1975 cells were treated with DMSO or staurosporine (1 μM, 4 h) in full RPMI. H1975 cells were treated with DMSO or AZD9291 (1 μM, 24 h) in full RPMI. Cells were lysed as described above. […] Samples were conjugated by copper-catalyzed azide-alkyne cycloaddition (CuAAC) to isotopically labeled, TEV-cleavable tags (TEV-tags). Heavy CuAAC reaction mixtures was added to the DMSO-treated or shGFP control samples and light CuAAC reaction mixture was added to compound-treated or shNRF2 samples. The CuAAC reaction mixture consisted of TEV tags (light or heavy, 10 μL of 5 mM stocks in DMSO, final concentration=100 μM), 1 mM tris(2-carboxyethyl)phosphine hydrochloride (TCEP; fresh 50× stock in water, final concentration=1 mM), ligand (17× stock in DMSO:t-butanol 1:4, final concentration=100 μM) and 1 mM CuSO4 (50× stock in water, final concentration=1 mM). The samples were allowed to react for 1 h at which point the samples were centrifuged (16,000×g, 5 min, 4° C.). The resulting pellets were sonicated in ice-cold methanol (500 μL) and the resuspended light- and heavy-labeled samples were then combined pairwise and centrifuged (16,000×g, 5 min, 4° C.). […] Samples were analyzed using an LTQVelos Orbitrap mass spectrometer (Thermo Scientific) coupled to an Agilent 1200-series quaternary pump. […]

The target of assay [2] is T1, NR0B1-SNW1 interaction (Homo sapiens, UniProt P51843).
T1 construct: endogenous in cells; host or cells: NR0B1: H2122 cell lysate
T1 sequence (P51843 1-470): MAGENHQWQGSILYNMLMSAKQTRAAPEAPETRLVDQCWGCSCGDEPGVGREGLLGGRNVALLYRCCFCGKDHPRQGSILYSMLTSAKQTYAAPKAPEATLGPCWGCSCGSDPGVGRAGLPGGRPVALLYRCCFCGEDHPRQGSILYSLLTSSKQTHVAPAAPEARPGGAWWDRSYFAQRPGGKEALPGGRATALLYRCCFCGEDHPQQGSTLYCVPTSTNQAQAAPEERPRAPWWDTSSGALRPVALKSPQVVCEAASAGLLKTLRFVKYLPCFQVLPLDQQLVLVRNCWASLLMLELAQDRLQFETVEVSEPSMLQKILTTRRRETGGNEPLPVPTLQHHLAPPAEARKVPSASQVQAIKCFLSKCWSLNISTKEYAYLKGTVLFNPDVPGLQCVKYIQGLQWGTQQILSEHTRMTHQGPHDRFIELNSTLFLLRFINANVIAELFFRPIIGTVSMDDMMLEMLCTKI
In words: In vitro binding assay: NR0B1 in H2122 lysate binding to immobilized FLAG-SNW1. The procedure:
H2122 clarified cell lysate (100 μL, 1 mg ml^−1) in IP-buffer were incubated with the indicated compounds or vehicle (DMSO) for 3 hours at 4° C. with rotation. Following treatment, 3 volumes of IP-buffer was added along with immobilized FLAG-SNW1 beads (30 μL, 50:50 slurry), which was incubated for an additional hour at 4° C. Beads were washed three times with IP-buffer supplemented with 500 mM NaCl. Immunoprecipitated proteins were resolved by SDS-PAGE and analyzed by immunoblotting. NR0B1 and HA-NR0B1 levels were determined by using the NR0B1 antibody (Cell Signaling). IC50 curves were determined using Prism 6 (Graphpad) software, with maximum and minimum values set at 100% NR0B1 bound 0% NR0B1 bound respectively.
Statistical analysis was preformed using GraphPad Prism version 6 or 7 for Mac, GraphPad Software, La Jolla Calif. USA, or the R statistical programming language. Inhibition curves of the NR0B1-SNW1 interactions by NR0B1-ligand are fit as using log(inhibitor) vs % normalized remaining of NR0B1-SNW1 interaction and data points are plotted as the mean±SD (n=2-5 per group). NR0B1 half-life was calculated from a one-phase exponential decay curve plotted as mean±SD (4-10 per group). Statistical significance was defined as p<0.05 and determined by 2-tailed Student's t-test (FIG. 1I, FIG. 3B), two-way Anova with Bonferroni post-test analysis (FIG. 1J) or correlation analysis using Pearson product-moment correlation coefficient (FIG. 4B, FIG. 10G).
Next, a chemical probe targeting C274 of NR0B1 was developed. Using an in vitro binding assay (FIG. 5B), an ˜80-member library of cysteine-reactive electrophilic compounds was screened at 50 μM for blockade of interactions between endogenous NR0B1 and recombinant FLAG-SNW1 in cell lysates (FIG. 5C). Among the hits (>50% blockade) were a series of N-disubstituted chloroacetamides (CAs), including BPK-26 (FIGS. 5D, 5E), that were selected for further investigation. […] Both BPK-26 and BPK-29 inhibited the NR0B1-SNW1 interaction with IC50 values between 10-20 μM in vitro (FIG. 11C).

Assay [3] concerns the target T2, NR0B1 (Homo sapiens, UniProt P51843).
T2 construct: H460 cells or H460 cells expressing luciferase in a 10 cm plate were incubated with indicated compounds; endogenous in cells; host or cells: H460 (NSCLC, KEAP1-mutant)
T2 sequence (P51843 1-470): T1 sequence (P51843 1-470)
Put plainly: isoTOP-ABPP of compound-treated H460 cells: NR0B1. It is filed as cell-based. To be noted: NSCLC cells, 40 μM, 3 h. How it is done: For analysis of NR0B1 ligands or control compound reactivity, H460 cells or H460 cells expressing luciferase in a 10 cm plate were incubated with indicated compounds in serum/dye-free RPMI for 3 hours at 37° C. Cells were washed once ice-cold PBS and lysed in 1% Triton X-100 dissolved in PBS with protease inhibitors (Sigma) by sonication. Samples were clarified by centrifugation for 10 min at 16,000×g. Lysate was adjusted to 1.5 mg ml^−1 in 500 μL.
Samples were labeled for 1 h at ambient temperature with 100 μM iodoacetamide alkyne (1, IA-alkyne, 5 μL of 10 mM stock in DMSO). Samples were conjugated by copper-catalyzed azide-alkyne cycloaddition (CuAAC) to isotopically labeled, TEV-cleavable tags (TEV-tags). Heavy CuAAC reaction mixtures was added to the DMSO-treated or shGFP control samples and light CuAAC reaction mixture was added to compound-treated or shNRF2 samples. The CuAAC reaction mixture consisted of TEV tags (light or heavy, 10 μL of 5 mM stocks in DMSO, final concentration=100 μM), 1 mM tris(2-carboxyethyl)phosphine hydrochloride (TCEP; fresh 50× stock in water, final concentration=1 mM), ligand (17× stock in DMSO:t-butanol 1:4, final concentration=100 μM) and 1 mM CuSO4 (50× stock in water, final concentration=1 mM). The samples were allowed to react for 1 h at which point the samples were centrifuged (16,000×g, 5 min, 4° C.). The resulting pellets were sonicated in ice-cold methanol (500 μL) and the resuspended light- and heavy-labeled samples were then combined pairwise and centrifuged (16,000×g, 5 min, 4° C.). The pellets were solubilized in PBS containing 1.2% SDS (1 mL) with sonication and heating (5 min, 95° C.) and any insoluble material was removed by an additional centrifugation step at ambient temperature (14,000×g, 1 min).
For each sample, 100 μL of streptavidin-agarose beads slurry (Fisher) was washed in 10 mL PBS and then resuspended in 6 mL PBS (final concentration 0.2% SDS in PBS). The SDS-solubilized proteins were added to the suspension of streptavidin-agarose beads and the bead mixture was rotated for 3 h at ambient temperature. After incubation, the beads were pelleted by centrifugation (1,400×g, 3 min) and were washed (2×10 mL PBS and 2×10 mL water).
The beads were transferred to eppendorftubes with 1 mL PBS, centrifuged (1,400×g, 3 min), and resuspended in PBS containing 6 M urea (500 μL). To this was added 10 mM DTT (25 μL of a 200 mM stock in water) and the beads were incubated at 65° C. for 15 mins. 20 mM iodoacetamide (25 μL of a 400 mM stock in water) was then added and allowed to react at 37° C. for 30 mins with shaking. The bead mixture was diluted with 900 μL PBS, pelleted by centrifugation (1,400×g, 3 min), and resuspended in PBS containing 2 M urea (200 μL). To this was added 1 mM CaCl2 (2 μL of a 200 mM stock in water) and trypsin (2 μg, Promega, sequencing grade) and the digestion was allowed to proceed overnight at 37° C. with shaking. The beads were separated from the digest with Micro Bio-Spin columns (Bio-Rad) by centrifugation (1,000×g, 1 min), washed (2×1 mL PBS and 2×1 mL water) and then transferred to fresh eppendorf tubes with 1 mL water. The washed beads were washed once further in 140 μL TEV buffer (50 mM Tris, pH 8, 0.5 mM EDTA, 1 mM DTT) and then resuspended in 140 μL TEV buffer. 5 μL TEV protease (80 μM) was added and the reactions were rotated overnight at 29° C. The TEV digest was separated from the beads with Micro Bio-Spin columns by centrifugation (1,400×g, 3 min) and the beads were washed once with water (100 μL). The samples were then acidified to a final concentration of 5% (v/v) formic acid and stored at −80° C. prior to analysis.
Samples processed for multidimensional liquid chromatography tandem mass spectrometry (MudPIT) were pressure loaded onto a 250 μm (inner diameter) fused silica capillary columns packed with C18 resin (Aqua 5 μm, Phenomenex). […]

The subject of assay [4] is KEAP1-mutant NSCLC cells. Put plainly: Colony formation in soft agar, KEAP1-mutant NSCLC cells. It is filed as cell-based, human. To be noted: 5 μM. An excerpt:
Based on its in situ activity (FIG. 6D and FIG. 12A, 12G) and selectivity (FIGS. 6A, 6B), BPK-29 was chosen for additional biological studies. […] Exogenous expression of […] the growth inhibition caused by BPK-29.

`C=CC(=O)Nc1cc(Nc2nccc(-c3cn(C)c4ccccc34)n2)c(OC)cc1N(C)CCN(C)C` [AZD9291]: the “changes in cysteine reactivity” value in assay [1] is recorded as “neither of which caused substantive changes in cysteine reactivity”.

Regarding `Cc1ccccc1C(=O)N1CCCC(N(Cc2ccccc2)C(=O)CCl)CC1` (stereo not drawn) [BPK-28, N-benzyl-2-chloro-N-(1-(2-methylbenzoyl)azepan-4-yl)acetamide], the “relative potency for inhibition of FLAG-SNW1 binding to NR0B1 (structure-activity relationship)” value in assay [2] (compounds at 50 μM) is given as “only modest reductions in potency”.

On to `COc1cc(CN(C(=O)CCl)c2cc(C(C)(C)C)ccc2OC)ccc1OCc1ccccc1` [BPK-27, N-(4-(benzyloxy)-3-methoxybenzyl)-N-(5-(tert-butyl)-2-methoxyphenyl)-2-chloroacetamide], for which the “engagement of C274 of NR0B1” value in assay [3] is given as “did not engage C274”. Also, in assay [4], the “colony formation in soft agar” value is listed as “much less of an effect”. The “inhibition of the NR0B1-SNW1 interaction” value in assay [2] (tested concentration range of 1-50 μM) is “did not inhibit”.

As for `CN[C@@H]1C[C@H]2O[C@@](C)([C@@H]1OC)n1c3ccccc3c3c4c(c5c6ccccc6n2c5c31)C(=O)NC4` [staurosporine], in assay [1], the “changes in cysteine reactivity” value was “neither of which caused substantive changes in cysteine reactivity”.
